Experimental data taken from patent US9283242B2, “Uses of dihydro bases” (priority 2013, dated 2016).
“Also recorded” adds a separate entry of the source.

Tests used:
[1] = Variable temperature 1H NMR, tautomerism in DMF-d7; assay type: physicochemical; conditions: DMF-d7, 20 to −60° C.
Protocol: At 20° C., exchangeable protons on the base moiety are observed at 7.58 ppm and 4.14 ppm (FIG. 10). At −60° C., exchangeable protons on the base moiety are observed at 8.70 ppm, 8.08 ppm, and 4.68 ppm (FIG. 11). Protons with a chemical shift of 8.70, 8.08, and 7.58 ppm likely correspond to enolic, amido, or imino protons, while protons with a chemical shift of 4.68 and 4.14 ppm likely correspond to amino protons. The expected chemical shifts for enolic, amido, and imino protons are relatively close, and thus these species cannot be assigned at this stage. […] Only the existence of multiple tautomeric species would explain the presence of three exchangeable protons resonances. […] Based on their chemical structures, the keto-amino tautomer will pair with guanine and the keto-imino/enol-imino tautomers can pair with adenine.
All NMR experiments were performed on Varian 500 MHz NMR spectrometers. The deuterated solvent DMF-d7 was from Cambridge Isotope Laboratories, Andover, Mass., USA. 5-Aza-5,6-dihydro-2′-deoxycytidine (KP1212) nucleoside was from Berry & Associates Inc., Dexter, Mich., USA. The NMR sample was prepared by dissolving 10 mg of KP1212 nucleoside in 1.0 ml DMF-d7 (final concentration ˜44 mM). ^1H NMR spectra were reported in parts per million (ppm) and were referenced to the signals for DMF-d7 (8.03 ppm). ^13C NMR spectra were referenced to the signals for DMF-d7 (163.15 ppm).
FIG. 14A depicts the structures of all five possible tautomers (1 to 5) of KP1212, among which the three active protons on the nucleobase shift among the 02, N3, N4 and N5 positions. […] Before assigning the three active protons on the nucleobase moiety, all non-exchangeable protons in KP1212 and the two hydroxyl protons on the 3′ and 5′ positions were identified by carrying out 1D (^1H and ^13C) and 2D (COSY, HSQC, and HMBC) NMR experiments. The NMR signals of the three active protons in the base portion of KP1212 were studied at different temperatures. […] When the temperature was decreased to −50° C., the three broad peaks resolved into six distinct proton resonances (FIG. 14B, denoted as peaks i-vi), which could be assigned to imino (designated as e and n in FIGS. 14A to 14C), amido (designated as g and m), enolic (designated as c and d) or amino (designated as a, b, f, h, i, j, k, l, and o) protons.
At −50° C. six distinct proton resonances (FIG. 14B, i to vi) were observed, attributable to protons bound either to nitrogen or to oxygen atom (for only the base portion of the KP1212 molecule). Integration of the six broad peaks permitted estimation of the relative ratios of the five tautomeric species that exist in solution (FIG. 14A).
The NMR data also allowed the determination of the relative ratios of the tautomeric species present in the DMF solution at −50° C. (FIGS. 14B and 14C). Several peaks in the NMR spectrum partially overlapped (e.g., iv and v), so the raw data were reconstructed using a least squares fit algorithm (FIG. 16). The reconstructed peaks from the simulation were integrated, yielding an estimate of the relative amounts of each of the proton resonances in the spectrum. […] 2) Based on the peak assignments from part 1), a system of linear equations was set up using the relative amounts of tautomers as unknown variables (FIG. 14D). Each NMR peak provided a linear equation whereby the peak area should be equal to the sum of all tautomers (as relative amounts) containing protons that contribute to that peak. The solutions of these equations yielded the relative ratios of the tautomeric species present in DMF at −50° C. (FIG. 14D).

[2] = system: HK82 (AlkB−) E. coli cells; assay type: cell-based
[3] = system: HK81 (AlkB+) E. coli cells; experiment: REAP mutagenesis assay, HK81 cells; assay type: cell-based
Source text: (§1) All E. coli strains used in this work contain the F′ episome, which enables infection by M13 phage. GW5100 strain was used for large scale preparation of M13 phage DNA, SCS 110 (JM110, end Al) was used for amplification of progeny phage post-electroporation, and NR9050 was the strain of choice for double agar plating with X-GAL for blue-clear detection of plaques. The E. coli strains used to replicate lesion-containing phage were HK81 (as AB1157, but nalA) and HK82 (as AB1157, but nalA alkB22; AlkB-deficient).
(§2) Lesion-containing genomes were mixed with the competitor genome (80:20 molar ratio) and electroporated in triplicate into 100 μl competent cells using a 2 mm-gap cuvette and a BTX electroporator set to 2.5 kV and 125 a Typical pulse lengths were 4.9 msec. The cells were immediately transferred to 10 ml LB and an aliquot was immediately plated using the agar overlay method to verify that a minimum of 10^5 independent initial electroporation events occurred in 10 ml of culture. Incubation for 6 h at 37° C. with aeration generated the progeny phage, which were then reamplified in SCS 110 cells (10 μl overnight culture and 100 μl of the 6 h supernatant in 10 ml LB) to dilute out the residual genomic DNA used for electroporation. Single-stranded M13 progeny phage DNA was isolated from 1.4 ml of supernatant using a Q1Aprep Spin M13 Kit with final DNA suspension in 100 μl elution buffer. CRAB forward and reverse primers were used to amplify the region of interest from 15 μl per Q1Aprep elution sample in a total volume of 25 μl containing 50 pmol of each primer, 1×Pfu Turbo buffer, 1.25 U Pfu Turbo DNA polymerase and […] of each dNTP. The PCR program used 30 cycles of 67° C. (1 min) annealing and 72° C. (1 min) extensions. After purification using QIAQUICK PCR purification columns, 4 μl of the PCR product were treated with BbsI (1.5 U) and SAP (0.3 U) in a total volume of 6 μl by incubating at 37° C. for 4 h. After phosphatase inactivation, (80° C. for 5 min), the 5′ ends were then radiolabeled using [γ-^32P]-ATP (1.66 pmol, 10 μCi/μl, 6000 Ci/mmol), cold ATP (16 pmol) and 5 U of OPTIKINASE at 37° C. for 30 min. Following the kinase inactivation at 65° C. for 20 min, the labeled product was then trimmed by HaeIII (10 U in a final volume of 10 μl) at 37° C. for 2 h, and diluted 1:1 in formamide loading dye. PAGE separation on a 20% denaturing gel, run for about 3.5 h at 550 V, until the xylene cyanol dye migrated 10.5 cm, yielded two bands for each sample: an 18-mer originating from the lesion-containing genome and a 21-mer originating from the competitor genome. The gels were visualized on a phosphorimager (Typhoon 7000, GE Healthcare Life Sciences); the band intensities were quantified using IMAGEJ software (National Institutes of Health). Lesion bypass was calculated as the percentage ratio of the intensity of the 18-mer band (lesion signal) to the intensity of the 21-mer band (competitor signal).
(§3) The REAP assay methodology is identical to the CRAB assay except for the PCR primers, which amplified only the progeny DNA originating from the lesion-carrying genomes. Following electrophoresis, the 18-mer bands were excised from the gel, crushed and extracted with 200 μl water. After desalting with SEPHADEX G-50 Fine resin spin columns, the samples were lyophilized to dryness, resuspended in 5 μl containing 1 μg P1 Nuclease in 30 mM sodium acetate (pH 5.3) and 10 mM zinc chloride, and incubated at 50° C. for 1 h. One μl of each sample was then spotted onto PEI-TLC plates and separated using 200 ml of a saturated solution of (NH4)2HPO4 adjusted to pH 5.8. After 24 h of development, the TLC plates were air-dried and quantified using phosphorimagery. […]

HK82-SOS = experiment: REAP mutagenesis assay, HK82-SOS cells; assay type: cell-based, E. coli; conditions: (b) HK82-SOS
Source text: as §1, §2, §3

[4] = system: HK81 (AlkB+) E. coli cells; assay type: cell-based
Protocol: (A) A 16mer oligonucleotide containing KP1212 (SEQ ID NO: 1) (or controls) at a specific site was chemically synthesized and ligated into the genome of an M13 bacteriophage. (B) The KP1212-containing M13 genomes were replicated within E. coli cells. Progeny were analyzed to characterize the amount and the type of nucleic acid base placed opposite the lesion during replication. The relative reduction in lesion vs. non-lesion competitor progeny formation was used as an estimate of the extent to which KP1212 and m3C inhibited DNA replication. (C) The KP1212-containing M13 genomes were used as templates for in vitro polymerase extension assays, carried out at 72° C., using the high-fidelity DNA polymerase PfuTurbo. (D) Bypass efficiency (CRAB assay) of KP1212, m3C, C in HK81 (AlkB^+) and HK82 (AlkB^−) E. coli cells. m3C and undamaged C were used as controls. Genomes were made and normalized to one another before being combined with a competitor genome. Each mixture was transformed into the corresponding cell strain in triplicate, and bypass efficiency was calculated by using the undamaged C genome as 100% bypass, with error bars representing one standard deviation. (E) Mutagenesis (REAP assay) of KP1212, m3C, and C in HK82 (AlkB^−) E. coli cells. m3C, undamaged C, and an approximately equimolar mixture of genomes carrying unmodified G/A/T/C bases at the site of inquiry (denoted as GATC) were used as controls. Genomes containing the lesions of interest were transfected into E. coli in triplicate.
as §1

[5] = system: HK82 (AlkB−) E. coli cells; assay type: cell-based; remark: listed apart in the source
HK82SOS = experiment: CRAB lesion bypass assay, HK82SOS cells; assay type: cell-based, E. coli; conditions: percentage relative to unmodified control genome
Source text: as §1
as §2, with “After purification using QIAQUICK PCR purification columns, 4 μl of the PCR product were treated with BbsI (1.5 U) and SAP (0.3 U) in a total volume of 6 μl by incubating at 37° C. for 4 h. After phosphatase inactivation, (80° C. for 5 min), the 5′ ends were then radiolabeled using [γ-^32P]-ATP (1.66 pmol, 10 μCi/μl, 6000 Ci/mmol), cold ATP (16 pmol) and 5 U of OPTIKINASE at 37° C. for 30 min. Following the kinase inactivation at 65° C. for 20 min, the labeled product was then trimmed by HaeIII (10 U in a final volume of 10 μl) at 37° C. for 2 h, and diluted 1:1 in formamide loading dye. PAGE separation on a 20% denaturing gel, run for about 3.5 h at 550 V, until the xylene cyanol dye migrated 10.5 cm, yielded two bands for each sample: an 18-mer originating from the lesion-containing genome and a 21-mer originating from the competitor genome.” left out, “signal). […]” for “signal).”

NC1=NC(=O)N(C2CC(O)C(CO)O2)CC1 (centres unmarked) [DHdC]
tautomerism by Variable Temperature NMR [1]: shows multiple tautomerism; also recorded: multiple tautomers

Nc1ncn([C@H]2C[C@H](O)[C@@H](CO)O2)c(=O)n1 [5-Aza-dC, 5-aza-2′-deoxycytidine]
tautomerism by Variable Temperature NMR [1]: does not show multiple tautomerism; also recorded: single tautomerism

Cn1c(N)ccnc1=O [m3C, 3-methylcytosine]
replication block / toxicity to replication ([2]; E. coli (FIG. 18D), for m3C cells that lack AlkB): very toxic to replication
Polymerase bypass efficiency, Avg. ([2]; HK82, percentage relative to unmodified control genome, triplicate): 14%
Mutagenicity, Average % C [3]: 100.0%
Mutagenicity, Average % A ([3]; (c) HK81): 0.0%
Mutagenicity, Average % G ([3]; (c) HK81): 0.0%
Mutagenicity, Average % T ([3]; (c) HK81): 0.0%
Mutagenicity, Average % A (HK82-SOS): 33.6%
Mutagenicity, Average % C (HK82-SOS): 5.7%
Mutagenicity, Average % G (HK82-SOS): 3.2%
Mutagenicity, Average % T (HK82-SOS): 57.5%
Polymerase bypass efficiency, Avg. ([4]; HK81, percentage relative to unmodified control genome): 113%
toxicity to replication ([4]; cells that expressed the repair enzyme AlkB): toxicity was abolished
Mutagenicity, Average % A ([5]; (a) HK82): 30.6%
Mutagenicity, Average % C ([5]; (a) HK82): 13.2%
Mutagenicity, Average % G ([5]; (a) HK82): 1.3%
Mutagenicity, Average % T ([5]; (a) HK82): 54.9%
base pairing / mutagenicity (in words) ([5]; FIGS. 18C, 18E, m3C in repair deficient cells): mispair with both A and T
Polymerase bypass efficiency, Avg. (HK82SOS): 45%
